These results are taken from patent US11213498B2, “Aqueous formulation comprising paracetamol and ibuprofen” (Hyloris Pharmaceuticals SA, priority 2014, dated 2022).

Data set [1] in a line: Dissolution of sodium ibuprofen 2H2O alone in water at gradually decreased pH (precipitation observed). As to conditions: for Dissolved: 3.85 mg/ml alone in water; for Dissolution: in water after 1 month storage at 25° C. Type of data set: physicochemical. The protocol:
Precipitation of ibuprofen is observed once pH is at 5.75. The Ibuprofen solutions were stored for 1 month at 25° C. They were again observed for signs of precipitation.

A short description of data set [2]: Dissolution of sodium ibuprofen 2H2O in the formulation Paracetamol - Ibuprofen at varying pH. Type of data set: physicochemical. As to the method: In a further experiment the dissolution of sodium ibuprofen 2H2O was studied in combination with paracetamol at a concentration of 10 mg paracetamol per liter.
Test in data set [3]: as above
Type of data set: physicochemical. Particulars: in the formulation 3 mg/ml Paracetamol 10 mg/ml Ibuprofen.

For data set [4] the following is noted: cited from earlier work.
Data set [5] in a line: Amount of paracetamol at various points in time and different pH. Type of data set: physicochemical. Particulars: pH range 6.3-7.3, various points in time. From the text:
The amount of paracetamol was studied at varies points in time and for different pH's.

Like-named read-outs stand apart in the source and are kept apart here.

For the compound `CC(C)Cc1ccc(C(C)C(=O)O)cc1` (stereo not drawn) [sodium ibuprofen 2H2O], the Dissolved entry in data set [1] (pH 3) was “No”; in data set [1] (pH 4) it was “No”; in data set [1] (pH 5), “No”; in data set [1] (pH 5.5), “No”; in data set [1] (pH 5.8) it was “Yes”; in data set [1] (pH 6) it was “Yes”. In addition, the Dissolved entry in data set [1] (pH 6.2), in data set [1] (pH 6.4), in data set [1] (pH 6.6), in data set [1] (pH 6.8), in data set [1] (pH 7) and in data set [1] (pH 7.5) was “Yes” in each case. Besides, the Dissolved result in data set [3] (pH 6.2), in data set [3] (pH 6.3), in data set [3] (pH 6.4), in data set [3] (pH 6.6) and in data set [3] (pH 7) was “Yes” in each case. The “pH at which precipitation of ibuprofen is observed” value in data set [1] (3.85 mg/ml in water, pH gradually decreased from 8.80) was 5.75. For the same compound, the Dissolution result in data set [1] (pH 5.8) is on record as “No”; in data set [1] (pH 6), “No”; in data set [1] (pH 6.2), “Yes”; in data set [1] (pH 6.4), “Yes”; in data set [1] (pH 6.6), “Yes”; in data set [1] (pH 6.8), “Yes”. Further, the Dissolution result in data set [1] (pH 7) is listed as “Yes”; in data set [1] (pH 7.5), “Yes”; in data set [2] (1 month storage at 25° C., pH 6.2), “No”; in data set [2] (1 month storage at 25° C., pH 6.3), “Yes”; in data set [2] (1 month storage at 25° C., pH 6.4) it was “Yes”; in data set [2] (1 month storage at 25° C., pH 6.6) it was “Yes”. Moreover, the Dissolution result in data set [2] (1 month storage at 25° C., pH 7) was “Yes”; in data set [2] (6 months, 25° C., pH 6.3), “Yes”; in data set [2] (6 months, 25° C., pH 6.4), “Yes”; in data set [2] (6 months, 25° C., pH 6.6) it was “Yes”; in data set [2] (6 months, 25° C., pH 7) it was “Yes”. For the same compound, the Precipitation result is given as “showed precipitation” in data set [1] (solution at pH 6, stored for 1 month at 25° C.) and “precipitation was absent” in data set [1] (solution at pH 6.2, stored for 1 month at 25° C.).

With `CC(C)Cc1ccc(C(C)C(=O)O)cc1` (stereo not drawn) [Ibuprofen, 2-(p-isobutylphenyl)propionic acid], in data set [4] (at pH 5.5 to 6.0), the Precipitation of ibuprofen result was “precipitates”. In data set [4], the Solubility in water entry is “very poorly soluble”.

In the case of `CC(=O)Nc1ccc(O)cc1` [paracetamol, N-(4-hydroxyphenyl)acetamide], the Degradation of paracetamol result in data set [5] is “minimal degradation”; in data set [4] (at pH 7), “significant”. Also, the “pH at which rate of degradation of paracetamol is minimal” value in data set [4] (aqueous solution (Koshy et al., 1961)) is listed as ~6.
